Assay results published in patent US20040033958A1, “N-alkylglycine trimeres capable of blocking the response to chemical substances, heat stimuli or mediators of neuronal receptor inflammation and compositions containing said trimeres” (priority 2000, published 2004).

Key:
[1] = target: VR1 nociceptor (Rattus norvegicus, UniProt O35433); assay: Blocking of capsaicin-activated ionic current in X. laevis ovocites expressing the VR1 nociceptor (two-microelectrode voltage clamp); format: cell-based; conditions: activated by capsaicin 20 μM, -80 mV, read-out: concentration that inhibited half the VR1 nociceptor response (IC50)
[2] = test system: irritation produced by topical capsaicin in the eye; assay: Ocular pain model: scratches after topical capsaicin in the eye of a mouse; format: in vivo; conditions: scratches during 1 minute, second capsaicin application with compound vs first without
Protocol: An investigation was performed on the attenuation of the N-alkylglycine trimeres indicated in Table 1, on the irritation produced by the topical application of capsaicin in the eyes of animals, an ocular pain model (22). The experimental paradigm compares the number of scratches after the topical administration of capsaicin at 0,01% in the eye of a mouse, in the absence and presence of the N-alkylglycine trimeres. After the administration of capsaicin, the number of times the mouse scratches its treated eye during 1 minute is counted. Subsequently, the affected eye is extensively rinsed with saline solution and 15 minutes after application, the compound to be tested is administered. After 5 minutes incubation, a 0,1% capsaicin solution containing the compound to be tested is administered. The number of times the animal scratches its eye during 1 minute is immediately counted. The analgesic capacity is obtained by comparing the number of scratches in the first application of capsaicin (without the compound to be tested) and the second application of the irritant (in the presence of the compound to be tested). A decrease of scratches in the second application of capsaicin is indicative of an analgesic activity of the N-alkylglycine trimere tested.

[3] = target: NMDA receptor (NR1 and NR2A subunities) (Homo sapiens, UniProt Q05586+Q12879); assay: Blocking of L-glutamate/glycine-activated ionic current in X. laevis ovocites expressing the NMDA receptor (two-microelectrode voltage clamp); format: cell-based; conditions: activated by L-glutamate/glycine 100 μM/20 μM, -80 mV, read-out: concentration that inhibited half the NMDA receptor response (IC50)
Source text: In order to evaluate the biological activity of the N-alkylglycine trimeres obtained in Example 1.1 on type NMDA glutamatergic receptors, a test was developed that evaluated the efficiency and power of said compounds blocking the ionic current activated by X. laevis ovocite agonist that express the type NMDA receptor, the […].
The heterologeous expression of receptors in X. laevis ovocites may be carried out according to the procedure described by Ferrer-Montiel and Montal (19). Briefly, the X. laevis ovocites of adult frogs are gathered, manipulated and injected with cRNA that codes the NR1 and NR2A subunities of the NMDA receptor (5, 20). The ionic currents activated by L-glutamate agonist in the presence of the glycine coagonist are recorded with the constant voltage maintenance technique with two microelectrodes (two-microelectrode voltage clamp) (19, 20). The ovocites that express the receptor are transferred to the recording chamber and perfunded using an 8-output perfusion system. The agonist and the coagonist, both in the absence and in the presence of the N-alkylglcycine trimeres to be tested, are dissolved in a Ringer buffer (Hepes 10 mM pH 7,4 NaCl 100 mM, Ba Cl2, 2,0 mM, KCl 3,0 mM) supplemented with 100 μM fluphenamic acid (20). This buffered solution is used to minimize the contribution of the chloride endogenous ionic channel activated by calcium to the glutamatergic receptor ionic current (19, 20). The transmembrane voltage is kept constant at −80 mV and the ionic currents are activated by applying pulses of the L-glutamate/glycine solution (100 μM /20 μM) in the presence or absence of growing concentrations of the N-alkylglycine trimeres to be tested. The inhibiting activity is detected by measuring the ionic current activated by the agonist in the presence and absence of the N-alkylglycine trimeres.
The power and efficiency of the N-alkylglycine trimeres inhibiting activity is determined by obtaining the dose-response curves. […]

Sequence of VR1 nociceptor (O35433 whole entry): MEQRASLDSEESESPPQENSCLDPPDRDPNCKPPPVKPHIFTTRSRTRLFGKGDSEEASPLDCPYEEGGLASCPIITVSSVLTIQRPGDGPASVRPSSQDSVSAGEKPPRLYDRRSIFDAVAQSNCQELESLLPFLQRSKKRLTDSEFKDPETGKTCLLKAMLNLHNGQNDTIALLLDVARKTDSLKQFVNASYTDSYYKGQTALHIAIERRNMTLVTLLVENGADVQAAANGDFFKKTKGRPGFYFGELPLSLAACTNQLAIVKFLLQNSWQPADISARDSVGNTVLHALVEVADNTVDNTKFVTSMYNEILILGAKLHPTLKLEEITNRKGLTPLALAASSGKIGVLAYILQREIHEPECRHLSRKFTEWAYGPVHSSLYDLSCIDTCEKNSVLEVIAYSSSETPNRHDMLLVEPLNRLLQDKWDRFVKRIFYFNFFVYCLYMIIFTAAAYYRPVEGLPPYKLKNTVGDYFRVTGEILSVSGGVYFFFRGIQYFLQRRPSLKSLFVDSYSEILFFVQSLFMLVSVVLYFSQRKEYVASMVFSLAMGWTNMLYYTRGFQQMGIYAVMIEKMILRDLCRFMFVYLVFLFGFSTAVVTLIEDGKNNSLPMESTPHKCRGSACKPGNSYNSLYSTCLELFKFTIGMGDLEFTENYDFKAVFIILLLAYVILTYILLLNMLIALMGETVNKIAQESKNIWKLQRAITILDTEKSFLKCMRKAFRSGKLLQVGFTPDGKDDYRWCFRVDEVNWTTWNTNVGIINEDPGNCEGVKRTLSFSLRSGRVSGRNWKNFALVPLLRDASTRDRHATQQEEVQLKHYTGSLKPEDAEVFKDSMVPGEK
Sequence of NMDA receptor (NR1 and NR2A subunities) (Q12879 23-1464, other chains not shown): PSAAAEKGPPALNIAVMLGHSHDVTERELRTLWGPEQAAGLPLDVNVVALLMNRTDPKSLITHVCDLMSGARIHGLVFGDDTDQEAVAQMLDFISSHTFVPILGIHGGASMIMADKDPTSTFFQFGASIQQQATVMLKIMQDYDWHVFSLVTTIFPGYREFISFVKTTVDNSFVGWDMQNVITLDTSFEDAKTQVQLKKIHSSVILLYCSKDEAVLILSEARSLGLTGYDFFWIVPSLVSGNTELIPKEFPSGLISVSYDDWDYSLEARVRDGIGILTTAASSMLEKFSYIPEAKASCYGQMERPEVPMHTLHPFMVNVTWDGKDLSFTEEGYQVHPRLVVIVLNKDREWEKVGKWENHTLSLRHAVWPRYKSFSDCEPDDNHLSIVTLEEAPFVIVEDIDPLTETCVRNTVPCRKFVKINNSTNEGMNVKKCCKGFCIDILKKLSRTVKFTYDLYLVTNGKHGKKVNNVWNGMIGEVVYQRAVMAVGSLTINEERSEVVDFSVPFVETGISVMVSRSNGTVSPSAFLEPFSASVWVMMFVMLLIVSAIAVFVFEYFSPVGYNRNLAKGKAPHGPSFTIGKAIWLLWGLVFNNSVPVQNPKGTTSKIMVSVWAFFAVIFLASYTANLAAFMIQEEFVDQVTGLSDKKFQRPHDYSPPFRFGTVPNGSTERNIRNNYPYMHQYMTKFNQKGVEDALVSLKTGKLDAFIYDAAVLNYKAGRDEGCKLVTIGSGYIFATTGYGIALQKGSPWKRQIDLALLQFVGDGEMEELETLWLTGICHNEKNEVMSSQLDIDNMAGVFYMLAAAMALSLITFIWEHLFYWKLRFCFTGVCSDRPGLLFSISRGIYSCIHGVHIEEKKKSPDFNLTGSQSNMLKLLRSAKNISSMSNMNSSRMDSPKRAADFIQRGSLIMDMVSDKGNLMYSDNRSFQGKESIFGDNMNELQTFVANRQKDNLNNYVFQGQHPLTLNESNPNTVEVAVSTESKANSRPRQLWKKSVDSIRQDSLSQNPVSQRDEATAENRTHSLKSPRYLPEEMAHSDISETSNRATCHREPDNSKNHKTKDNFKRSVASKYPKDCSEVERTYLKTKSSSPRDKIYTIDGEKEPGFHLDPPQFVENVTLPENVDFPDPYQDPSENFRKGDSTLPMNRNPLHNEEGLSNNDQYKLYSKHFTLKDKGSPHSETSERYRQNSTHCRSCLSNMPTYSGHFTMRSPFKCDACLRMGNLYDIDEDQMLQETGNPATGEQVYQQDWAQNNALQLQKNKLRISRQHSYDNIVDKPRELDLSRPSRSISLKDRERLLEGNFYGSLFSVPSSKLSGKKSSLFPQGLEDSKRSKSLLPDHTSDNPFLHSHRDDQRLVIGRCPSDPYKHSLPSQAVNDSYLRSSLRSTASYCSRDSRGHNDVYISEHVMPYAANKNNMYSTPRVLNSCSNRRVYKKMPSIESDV

Structure (SMILES)	IC50 [1] [nM]	IC50 [3] [nM]	attenuation of the ocular irritation produced by capsaicin [2]
CN1CCCC1CCNCC(=O)N(CCc1ccc(Cl)cc1Cl)CC(=O)N(CCc1ccc(Cl)cc1Cl)CC(N)=O (racemic) [compound [4], [N-[(R,S)-2-[2-(N-methyl)pyrrolidinyl]ethyl]glycyl]-[N-(2,4-dichlorophenethyl)glycyl]-N-(2,4-dichlorophenethyl)glycinamide]	~1000	–	approximately 40%
CCN(CC)CCCNCC(=O)N(CCc1ccc(Cl)cc1Cl)CC(=O)N(CCC(C)C)CC(N)=O [compound [7], [N-[3-(N,N-diethylamine)propyl]glycyl]-[N-(2,4-dichlorophenethyl)glycyl]-N-(3-methylbutyl)glycinamide]	~30000	–	–
CCN(CC)CCCNCC(=O)N(CCc1ccc(Cl)cc1Cl)CC(=O)N(CCc1ccc(Cl)cc1Cl)CC(N)=O [compound [8], [N-[3-(N,N-diethylamine)propyl]glycyl]-[N-(2,4-dichlorophenethyl)glycyl]-N-(2,4-dichlorophenethyl)glycinamide]	~2000	–	approximately 20%

Now from value to compound, other results behind:

IC50 [1] [nM]	IC50 [3] [nM]	Structure (SMILES)	attenuation of the ocular irritation produced by capsaicin [2]
–	1000	CCN(CC)CCCN(CC(=O)N(CCc1ccc(Cl)cc1Cl)CC(N)=O)C(=O)CNCCC(c1ccccc1)c1ccccc1 [compound [9]]	–
–	~10000	CCN(CC)CCCN(CC(=O)N(CCn1ccnc1)CC(N)=O)C(=O)CNCCC(c1ccccc1)c1ccccc1 [compound [11]]	–
–	~2000	CCN(CC)CCCN(CC(=O)N(CCc1ccccn1)CC(N)=O)C(=O)CNCCC(c1ccccc1)c1ccccc1 [compound [10]]	–
